Assay [1] addresses T1, S1P1 (Homo sapiens (Human), UniProt P21453). Kind of assay: Receptor [35S] GTPγS Binding Assay, S1P1. It is filed as biochemical. The note with it: membranes from S1P1/CHO cells. On the procedure: (§1) Receptor [^35S] GTPγS Binding Assays:
(§2) Compounds were loaded in a 384 Falcon v-bottom plate (0.5 μl/well in an 11 point, 3-fold dilution). Membranes prepared from S1P1/CHO cells or EDG3-Gal5-bla HEK293T cells (EDG3 equivalent S1P3) were added to the compound plate ([…], final protein 3 μg/well) with MULTIDROP®. [^35S]GTP (1250 Ci/mmol, Perkin Elmer) was diluted in assay buffer: 20 mM HEPES, pH7.5, 10 mM MgCl2, 150 mM NaCl, 1 mM EGTA (ethylene glycol tetraacetic acid), 1 mM DTT (Dithiothreitol), 10 μM GDP, 0.1% fatty acid free BSA, and 10 μg/ml Saponin to 0.4 nM. 40 μl of the [35S] GTP solution was added to the compound plate with a final concentration of 0.2 nM. The reaction was kept at room temperature for 45 min. At the end of incubation, all the mixtures in the compound plate were transferred to Millipore 384-well FB filter plates via the VELOCITY11 ® Vprep liquid handler. The filter plate was washed with water 4 times by using the manifold Embla plate washer and dried at 60° C. for 45 min. MicroScint 20 scintillation fluid (30 μl) was added to each well for counting on the Packard TOPCOUNT®. EC50 is defined as the agonist concentration that corresponds to 50% of the Ymax (maximal response) obtained for each individual compound tested.
A smaller value for GTPγS S1P1 EC50 value indicated greater activity for the compound in the GTPγS S1P1 binding assay. Thus the compounds of the present invention may be used in treating, preventing, or curing various S1P1 receptor-related conditions. The compounds have potential use in treating, preventing, or curing autoimmune and inflammatory diseases such as multiple sclerosis, rheumatoid arthritis, inflammatory bowel disease, lupus, psoriasis, or minimizing or reducing rejection of transplanted organs.

Assay [2] deals with S1P3 (Homo sapiens (Human), UniProt Q99500). Kind of assay: Receptor [35S] GTPγS Binding Assay, S1P3. It is filed as biochemical. The note with it: membranes from EDG3-Gal5-bla HEK293T cells. As for the experimental part:
as §1, §2

The target of assay [3] is T1, S1P1. In words: S1P1 Binding Assay (33P-S1P ligand competition, CHO membranes). To be noted: membranes from CHO cells expressing human S1P1. On the procedure:
Membranes were prepared from CHO cells expressing human S1P1. Cells pellets (1×10^9 cells/pellet) were suspended in buffer containing 20 mM HEPES (4-(2-hydroxyethyl)-1-piperazineethanesulfonic acid), pH 7.5, 50 mM NaCl, 2 mM EDTA (ethylenediamine tetraacetic acid) and Protease Inhibitor cocktail (Roche), and disrupted on ice using the Polytron homogenizer. The homogenate was centrifuged at 20,000 rpm (48,000 g) and the supernatant was discarded. The membrane pellets were resuspended in buffer containing 50 mM HEPES, pH 7.5, 100 mM NaCl, 1 mM MgCl2, 2 mM EDTA and stored in aliquots at −80° C. after protein concentration determination.
Membranes (2 μg/well) and 0.03 nM final concentration of ^33P-S1P ligand (1 mCi/ml, Perkin Elmer or American Radiolabeled Chemicals) diluted in assay buffer (50 mM HEPES, pH7.4, 5 mM MgCl2, 1 mM CaCl2), 0.5% fatty acid free BSA (bovine serum albumin), 1 mM NaF) were added to the compound plates (384 Falcon v-bottom plate (0.5 μl/well in a 11 point, 3-fold dilution). Binding was performed for 45 minutes at room temperature, terminated by collecting the membranes onto 384-well Millipore FB filter plates, and radioactivity was measured by TOPCOUNT®. The competition data of the test compounds over a range of concentrations was plotted as percentage inhibition of radioligand specific binding. The IC50 is defined as the concentration of competing ligand needed to reduce specific binding by 50%.

S1P3, sequence (Q99500 whole entry): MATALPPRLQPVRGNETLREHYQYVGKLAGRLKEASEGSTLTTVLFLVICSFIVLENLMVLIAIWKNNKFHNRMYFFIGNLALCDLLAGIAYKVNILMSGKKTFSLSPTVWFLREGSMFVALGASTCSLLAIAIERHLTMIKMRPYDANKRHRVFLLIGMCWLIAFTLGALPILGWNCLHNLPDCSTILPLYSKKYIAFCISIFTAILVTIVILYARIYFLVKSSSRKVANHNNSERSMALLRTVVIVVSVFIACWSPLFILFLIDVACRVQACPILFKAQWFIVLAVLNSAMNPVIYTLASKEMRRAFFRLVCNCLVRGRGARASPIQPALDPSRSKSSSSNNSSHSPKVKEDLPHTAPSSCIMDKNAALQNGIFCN
T1 sequence (P21453 whole entry): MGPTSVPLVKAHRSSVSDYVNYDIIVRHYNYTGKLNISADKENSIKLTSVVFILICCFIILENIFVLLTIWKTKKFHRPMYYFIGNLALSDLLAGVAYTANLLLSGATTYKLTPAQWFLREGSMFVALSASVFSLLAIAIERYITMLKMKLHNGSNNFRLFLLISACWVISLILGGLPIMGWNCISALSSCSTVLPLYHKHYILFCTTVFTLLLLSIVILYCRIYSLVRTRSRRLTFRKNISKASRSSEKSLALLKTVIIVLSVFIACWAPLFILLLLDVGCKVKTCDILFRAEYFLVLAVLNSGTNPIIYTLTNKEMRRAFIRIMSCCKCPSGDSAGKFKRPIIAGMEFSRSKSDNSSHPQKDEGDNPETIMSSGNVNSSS

Take `C/C(=N\OCc1ccc(C2CCCCC2)c(C(F)(F)F)c1)c1ccc(C(=O)N2CCC(N)(COP(=O)(O)O)C2)cc1` (single isomer, unassigned) [Example 59, (E)-(3-amino-1-(4-(1-(((4-cyclohexyl-3-(trifluoromethyl)benzyl)oxy)imino)ethyl)benzoyl)pyrrolidin-3-yl)methyl dihydrogen phosphate]: the EC50 (in general, the concentration at which the effect is half-maximal) in assay [1] is 0.136 µM; in assay [2], more than 3.13 µM. Further, in assay [3], the IC50 (as a rule, the concentration that inhibits the measured activity by half) came to 0.0105 µM.
Taken in the same sequence, the figures for `C/C(=N\OCc1ccc(C2CCCCC2)c(C(F)(F)F)c1)c1ccc(C(=O)N2CCC(N)(COP(=O)(O)O)C2)cc1` (single isomer, unassigned) [Example 60, (E)-(3-amino-1-(4-(1-(((4-cyclohexyl-3-(trifluoromethyl)benzyl)oxy)imino)ethyl)benzoyl)pyrrolidin-3-yl)methyl dihydrogen phosphate] were 0.434 µM, more than 6.25 µM and 0.0284 µM.
The like results for `C/C(=N\OCCCc1ccccc1)c1ccc(C(=O)N2CCC(N)(COP(=O)(O)O)C2)cc1` (single isomer, unassigned) [Example 61, (E)-(3-amino-1-(4-(1-((3-phenylpropoxy)imino)ethyl)benzoyl)pyrrolidin-3-yl)methyl dihydrogen phosphate] were, in that order, 0.204 µM, more than 6.25 µM and 0.126 µM.
Take `C/C(=N\OCCCc1ccccc1)c1ccc(C(=O)N2CCC(N)(COP(=O)(O)O)C2)cc1` (single isomer, unassigned) [Example 62, (E)-(3-amino-1-(4-(1-((3-phenylpropoxy)imino)ethyl)benzoyl)pyrrolidin-3-yl)methyl dihydrogen phosphate]: the EC50 in assay [1] is 0.504 µM; in assay [2] it was more than 6.25 µM. This molecule also showed an IC50 in assay [3] of 1.47 µM.
Taken in the same sequence, the figures for `CC/C(=N\OCCCc1ccccc1)c1ccc(C(=O)N2CCC(N)(COP(=O)(O)O)C2)cc1` (single isomer, unassigned) [Example 63, (E)-(3-amino-1-(4-(1-((3-phenylpropoxy)imino)propyl)benzoyl)pyrrolidin-3-yl) methyl dihydrogen phosphate] were 0.342 µM, more than 6.25 µM and 0.183 µM.
On to `CC/C(=N\OCCCc1ccccc1)c1ccc(C(=O)N2CCC(N)(COP(=O)(O)O)C2)cc1` (single isomer, unassigned) [Example 64, (E)-(3-amino-1-(4-(1-((3-phenylpropoxy)imino)propyl)benzoyl)pyrrolidin-3-yl) methyl dihydrogen phosphate], for which the EC50 in assay [1] is 0.5 µM; in assay [2] it was more than 6.25 µM. In assay [3], this molecule had a half-inhibitory concentration (IC50) of 2.53 µM.
Taken in the same sequence, the figures for `C/C(=N\OCc1ccc(C2CCCCC2)c(C(F)(F)F)c1)c1ccc(C(=O)N2CCCC(N)(COP(=O)(O)O)C2)cc1` (single isomer, unassigned) [Example 66, (E)-(3-amino-1-(4-(1-(((4-cyclohexyl-3-(trifluoromethyl)benzyl)oxy)imino)ethyl)benzoyl)piperidin-3-yl)methyl dihydrogen phosphate] were 0.194 µM, 9.37 µM and 0.062 µM.
As to `C/C(=N\OCc1ccc(C2CCCCC2)c(C(F)(F)F)c1)c1ccc(C(=O)N2CCCC(N)(COP(=O)(O)O)C2)cc1` (single isomer, unassigned) [Example 67, (E)-(3-amino-1-(4-(1-(((4-cyclohexyl-3-(trifluoromethyl)benzyl)oxy)imino)ethyl)benzoyl)piperidin-3-yl)methyl dihydrogen phosphate], the EC50 in assay [1] is 0.754 µM; in assay [2], more than 18 µM. In assay [3], this molecule displayed an IC50 of 0.12 µM.
Consider `C/C(=N\OCCCc1ccccc1)c1ccc(C(=O)N2CCCC(N)(COP(=O)(O)O)C2)cc1` (single isomer, unassigned) [Example 68, (E)-(3-amino-1-(4-(1-((3-phenylpropoxy)imino)ethyl)benzoyl)piperidin-3-yl)methyl dihydrogen phosphate], for which the half-maximal effective concentration (EC50) came out at 0.399 µM in assay [1] and 9.37 µM in assay [2]. For the same molecule, in assay [3], the IC50 is 0.362 µM.
As to `C/C(=N\OCCCc1ccccc1)c1ccc(C(=O)N2CCCC(N)(COP(=O)(O)O)C2)cc1` (single isomer, unassigned) [Example 69, (E)-(3-amino-1-(4-(1-((3-phenylpropoxy)imino)ethyl)benzoyl)piperidin-3-yl)methyl dihydrogen phosphate], the EC50 in assay [1] is 0.767 µM. Besides, the IC50 in assay [3] was found to be 0.899 µM.
For the molecule `C/C(=N\OCCc1ccccc1)c1ccc(C2CC[C@](N)(COP(=O)(O)O)C2)cc1` (stereo in doubt) [Example 73, ((1R,3R)-1-amino-3-(4-((E)-1-(phenethoxyimino)ethyl)phenyl)cyclopentyl)methyl dihydrogen phosphate], the 50% effective concentration (EC50) in assay [1] is 0.0444 µM; in assay [2] it was more than 30 µM. In assay [3], this molecule showed an IC50 of 0.0496 µM.
Taken in the same sequence, the figures for `CC(=NOCC1CC1)c1ccc([C@@H]2CC[C@](N)(COP(=O)(O)O)C2)cc1` [Example 38, ((1R,3R)-1-amino-3-(4-(1-((cyclopropylmethoxy)imino)ethyl)phenyl)cyclopentyl)methyl Dihydrogen Phosphate] were more than 30 µM, more than 30 µM and 0.284 µM.
In assay [3], `CC(=NOCc1ccccc1)c1ccc([C@@H]2CC[C@](N)(COP(=O)(O)O)C2)cc1` [Example 39, ((1R,3R)-1-amino-3-(4-(1-((benzyloxy)imino)ethyl)phenyl)cyclopentyl)methyl dihydrogen phosphate] yielded an IC50 of 0.865 µM.
`C/C(=N\OCc1ccc(C2CCCCC2)c(C(F)(F)F)c1)c1ccc([C@@H]2CC[C@](N)(COP(=O)(O)O)C2)cc1` [Example 40, ((1R,3R)-1-amino-3-(4-((E)-1-(((4-cyclohexyl-3-(trifluoromethyl)benzyl)oxy)imino)ethyl)phenyl)cyclopentyl) methyl dihydrogen phosphate]: the results for the 50% effective concentration (EC50) in assay [1] and in assay [2] were 0.0381 µM and more than 60 µM, respectively. Also, the IC50 in assay [3] came to 0.0283 µM.
With `CC(=NOCc1ccc([N+](=O)[O-])cc1)c1ccc([C@@H]2CC[C@](N)(COP(=O)(O)O)C2)cc1` [Example 42, ((1R,3R)-1-amino-3-(4-(1-(((4-nitrobenzyl)oxy)imino)ethyl)phenyl)cyclopentyl) methyl dihydrogen phosphate], the EC50 is 0.0176 µM in assay [1] and more than 30 µM in assay [2].
The like results for `CC(=NOCc1ccc(F)cc1)c1ccc([C@@H]2CC[C@](N)(COP(=O)(O)O)C2)cc1` [Example 43, ((1R,3R)-1-amino-3-(4-(1-(((4-fluorobenzyl)oxy)imino)ethyl)phenyl)cyclopentyl) methyl dihydrogen phosphate] were, in that order, 0.0264 µM and more than 30 µM.
With `COc1cccc(/C(C)=N/OCc2ccc([C@H]3CC[C@](N)(COP(=O)(O)O)C3)cc2)c1` [Example 54, ((1R,3S)-1-amino-3-(4-(((((E)-1-(3-methoxyphenyl)ethylidene)amino)oxy)methyl)phenyl)cyclopentyl) methyl dihydrogen phosphate], the IC50 in assay [3] was 0.0142 µM.
As to `CC(=NOCCc1ccccc1)c1ccc(C(=O)N2CCC(N)(COP(=O)(O)O)C2)cc1` (stereo not drawn) [Example 55, (3-amino-1-(4-(1-(phenethoxyimino)ethyl)benzoyl)pyrrolidin-3-yl)methyl Dihydrogen Phosphate], the results for the EC50 in assay [1] and in assay [2] were 1.56 µM and more than 60 µM, respectively.
On to `C/C(=N\OCCc1ccccc1)c1ccc(C(=O)N2CCC(N)(COP(=O)(O)O)CC2)cc1` [Example 56, (4-amino-1-(4-(1-(phenethoxyimino)ethyl)benzoyl)piperidin-4-yl)methyl dihydrogen phosphate], for which the EC50 is 0.295 µM in assay [1] and more than 60 µM in assay [2].

These data come from US11059784B2, “Oxime ether compounds” (BRISTOL-MYERS SQUIBB COMPANY, priority 2017, dated 2021).
